Laboratory results published in patent US9499538B2, “Estrogen receptor modulators and uses thereof” (Seragon Pharmaceuticals, Inc., priority 2012, dated 2016).

Key:
MCF-7 cells = experiment: Breast Cancer Cell Viability Assays (MCF-7, CellTiter-Glo); format: cell-based; details: 5 days' compound exposure; for IC50: Homo sapiens, MCF7, 120 h
Method in brief: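 MCF-7 cells (320/well, RPMI with 10% FBS) exposed for 5 days to an eleven-point semilog series, 0.3–0.000003 μM final. Viability read by CellTiter-Glo luminescence, expressed as background-corrected percent of untreated cells.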

ER-α in MCF-7 cells = molecular target: T1, ER-α in MCF-7 cells (Homo sapiens, UniProt P03372); experiment: Breast Cancer Cell ER-α In Cell Western Assay (SP1); format: cell-based; details: 4 or 24 hr post compound addition; for Emax: MCF7, SP1 antibody, read-out: ER-α In Cell Western Assay (SP1) Max Response; for DC50: SP1 antibody, read-out: ER-α In Cell Western Assay (SP1) IC50
T1 construct: endogenous in cells; host or cells: MCF-7
T1 sequence (P03372 1-595): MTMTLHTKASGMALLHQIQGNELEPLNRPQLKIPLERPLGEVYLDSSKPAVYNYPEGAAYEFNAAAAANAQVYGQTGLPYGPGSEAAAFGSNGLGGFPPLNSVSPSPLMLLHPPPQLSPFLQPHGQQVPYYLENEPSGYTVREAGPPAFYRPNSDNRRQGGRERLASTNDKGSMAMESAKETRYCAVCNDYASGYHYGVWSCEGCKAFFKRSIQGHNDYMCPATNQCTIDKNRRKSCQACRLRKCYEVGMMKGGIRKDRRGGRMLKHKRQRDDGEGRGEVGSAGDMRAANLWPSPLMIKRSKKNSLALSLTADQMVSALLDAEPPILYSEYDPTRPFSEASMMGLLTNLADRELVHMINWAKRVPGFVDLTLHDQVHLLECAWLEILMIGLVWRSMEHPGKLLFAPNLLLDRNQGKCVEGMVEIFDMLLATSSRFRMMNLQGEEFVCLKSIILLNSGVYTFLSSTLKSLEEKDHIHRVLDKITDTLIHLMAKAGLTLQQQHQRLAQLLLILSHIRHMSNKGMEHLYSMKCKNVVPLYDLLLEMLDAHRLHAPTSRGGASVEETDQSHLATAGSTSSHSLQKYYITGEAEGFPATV
Method in brief: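 MCF-7 cells in charcoal-stripped FBS medium, treated with 11-point semilog dilutions (0.3–0.000003 μM final) for 4 or 24 h. Fixed cells immunostained with SP1 antibody (800 nm) and DRAQ5 DNA (700 nm); ER/DNA ratio expressed as % of untreated cells.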

CC/C(=C(/c1ccc(/C=C/C(=O)O)cc1)c1ccc2[nH]nc(F)c2c1)c1ccc(C#N)cc1Cl [Example 106, (E)-3-(4-((E)-2-(2-Chloro-4-cyanophenyl)-1-(3-fluoro-1H-indazol-5-yl)but-1-en-1-yl)phenyl)acrylic acid]
MCF7 Viability Assay Max Response (MCF-7 cells): ++ (++ = a single % value ≧ 40%) | IC50 (MCF-7 cells): ≤ 100 nM | Emax (ER-α in MCF-7 cells): ≥ 40% | DC50 (ER-α in MCF-7 cells): ≤ 100 nM

CC/C(=C(/c1ccc(/C=C/C(=O)O)cc1)c1ccc2[nH]nc(F)c2c1)c1ccc(OC)cc1C#N [Example 107]
MCF7 Viability Assay Max Response (MCF-7 cells): ++ (++ = a single % value ≧ 40%) | IC50 (MCF-7 cells): ≤ 100 nM | Emax (ER-α in MCF-7 cells): ≥ 40% | DC50 (ER-α in MCF-7 cells): ≤ 100 nM

N#Cc1cc(Cl)ccc1/C(=C(\c1ccc(/C=C/C(=O)O)cc1)c1ccc2[nH]nc(F)c2c1)C1CCC1 [Example 108, (E)-3-(4-((E)-2-(4-Chloro-2-cyanophenyl)-2-cyclobutyl-1-(3-fluoro-1H-indazol-5-yl)vinyl)phenyl)acrylic acid]
MCF7 Viability Assay Max Response (MCF-7 cells): ++ (++ = a single % value ≧ 40%) | IC50 (MCF-7 cells): ≤ 100 nM | Emax (ER-α in MCF-7 cells): ≥ 40% | DC50 (ER-α in MCF-7 cells): ≤ 100 nM

N#Cc1cc(Cl)ccc1/C(=C(\c1ccc(/C=C/C(=O)O)cc1)c1ccc2[nH]ncc2c1)C1CCC1 [Example 109, (E)-3-(4-((E)-2-(4-Chloro-2-cyanophenyl)-2-cyclobutyl-1-(1H-indazol-5-yl)vinyl)phenyl)acrylic acid]
MCF7 Viability Assay Max Response (MCF-7 cells): ++ (++ = a single % value ≧ 40%) | IC50 (MCF-7 cells): ≤ 100 nM | Emax (ER-α in MCF-7 cells): ≥ 40% | DC50 (ER-α in MCF-7 cells): ≤ 100 nM

CCOc1cc(C)c(/C(=C(\c2ccc(/C=C/C(=O)O)cc2)c2ccc3[nH]nc(F)c3c2)C2CCC2)cn1 [Example 110, (E)-3-(4-((E)-2-Cyclobutyl-2-(6-ethoxy-4-methylpyridin-3-yl)-1-(3-fluoro-1H-indazol-5-yl)vinyl)phenyl)acrylic acid]
MCF7 Viability Assay Max Response (MCF-7 cells): ++ (++ = a single % value ≧ 40%) | IC50 (MCF-7 cells): ≤ 100 nM | Emax (ER-α in MCF-7 cells): ≥ 40% | DC50 (ER-α in MCF-7 cells): ≤ 100 nM

COc1ncc(/C(=C(\c2ccc(/C=C/C(=O)O)cc2)c2ccc3[nH]nc(F)c3c2)C2CCC2)c(C(F)(F)F)n1 [Example 111, (E)-3-(4-((E)-2-Cyclobutyl-1-(3-fluoro-1H-indazol-5-yl)-2-(2-methoxy-4-(trifluoromethyl)pyrimidin-5-yl)vinyl)phenyl)acrylic acid]
MCF7 Viability Assay Max Response (MCF-7 cells): ++ (++ = a single % value ≧ 40%) | IC50 (MCF-7 cells): ≤ 100 nM | Emax (ER-α in MCF-7 cells): ≥ 40% | DC50 (ER-α in MCF-7 cells): ≤ 100 nM

COc1cc(C)c(/C(=C(\c2ccc(/C=C/C(=O)O)cc2)c2ccc3[nH]nc(F)c3c2)C2CCC2)cn1 [Example 112, (E)-3-(4-((E)-2-Cyclobutyl-1-(3-fluoro-1H-indazol-5-yl)-2-(6-methoxy-4-methylpyridin-3-yl)vinyl)phenyl)acrylic acid]
MCF7 Viability Assay Max Response (MCF-7 cells): ++ (++ = a single % value ≧ 40%) | IC50 (MCF-7 cells): ≤ 100 nM | Emax (ER-α in MCF-7 cells): ≥ 40% | DC50 (ER-α in MCF-7 cells): ≤ 100 nM

COc1ccc(/C(=C(\c2ccc(/C=C/C(=O)O)cc2)c2ccc3[nH]nc(F)c3c2)C2CC2)c(F)c1 [Example 113, (E)-3-(4-((E)-2-Cyclopropyl-1-(3-fluoro-1H-indazol-5-yl)-2-(2-fluoro-4-methoxyphenyl)vinyl)phenyl)acrylic acid]
MCF7 Viability Assay Max Response (MCF-7 cells): ++ (++ = a single % value ≧ 40%) | IC50 (MCF-7 cells): ≤ 100 nM | Emax (ER-α in MCF-7 cells): ≥ 40% | DC50 (ER-α in MCF-7 cells): ≤ 100 nM

COc1ccc(/C(=C(\c2ccc(/C=C/C(=O)O)cc2)c2ccc3[nH]nc(F)c3c2)C2CC2)c(Cl)c1 [Example 114, (E)-3-(4-((E)-2-(2-Chloro-4-methoxyphenyl)-2-cyclopropyl-1-(3-fluoro-1H-indazol-5-yl)vinyl)phenyl)acrylic acid]
MCF7 Viability Assay Max Response (MCF-7 cells): ++ (++ = a single % value ≧ 40%) | IC50 (MCF-7 cells): ≤ 100 nM | Emax (ER-α in MCF-7 cells): ≥ 40% | DC50 (ER-α in MCF-7 cells): ≤ 100 nM

COc1ccc(/C(=C(\c2ccc(/C=C/C(=O)O)cc2)c2ccc3[nH]nc(F)c3c2)C2CC2)c(C)c1 [Example 115, (E)-3-(4-((E)-2-Cyclopropyl-1-(3-fluoro-1H-indazol-5-yl)-2-(4-methoxy-2-methylphenyl)vinyl)phenyl)acrylic acid]
MCF7 Viability Assay Max Response (MCF-7 cells): ++ (++ = a single % value ≧ 40%) | IC50 (MCF-7 cells): ≤ 100 nM | Emax (ER-α in MCF-7 cells): ≥ 40% | DC50 (ER-α in MCF-7 cells): ≤ 100 nM

COc1cc(C)c(/C(=C(\c2ccc(/C=C/C(=O)O)cc2)c2ccc3[nH]nc(F)c3c2)C2CC2)cn1 [Example 116, (E)-3-(4-((E)-2-Cyclopropyl-1-(3-fluoro-1H-indazol-5-yl)-2-(6-methoxy-4-methylpyridin-3-yl)vinyl)phenyl)acrylic acid]
MCF7 Viability Assay Max Response (MCF-7 cells): ++ (++ = a single % value ≧ 40%) | IC50 (MCF-7 cells): ≤ 100 nM | Emax (ER-α in MCF-7 cells): ≥ 40% | DC50 (ER-α in MCF-7 cells): ≤ 100 nM

CCOc1cc(C)c(/C(=C(\c2ccc(/C=C/C(=O)O)cc2)c2ccc3[nH]nc(F)c3c2)C2CC2)cn1 [Example 117, (E)-3-(4-((E)-2-Cyclopropyl-2-(6-ethoxy-4-methylpyridin-3-yl)-1-(3-fluoro-1H-indazol-5-yl)vinyl)phenyl)acrylic acid]
MCF7 Viability Assay Max Response (MCF-7 cells): ++ (++ = a single % value ≧ 40%) | IC50 (MCF-7 cells): ≤ 100 nM | Emax (ER-α in MCF-7 cells): ≥ 40% | DC50 (ER-α in MCF-7 cells): ≤ 100 nM

Cc1cc(C#N)ccc1/C(=C(\c1ccc(/C=C/C(=O)O)cc1)c1ccc2[nH]nc(F)c2c1)C1CC1 [Example 118, (E)-3-(4-((E)-2-(4-Cyano-2-methylphenyl)-2-cyclopropyl-1-(3-fluoro-1H-indazol-5-yl)vinyl)phenyl)acrylic acid]
MCF7 Viability Assay Max Response (MCF-7 cells): ++ (++ = a single % value ≧ 40%) | IC50 (MCF-7 cells): ≤ 100 nM | Emax (ER-α in MCF-7 cells): ≥ 40% | DC50 (ER-α in MCF-7 cells): ≤ 100 nM

N#Cc1ccc(/C(=C(\c2ccc(/C=C/C(=O)O)cc2)c2ccc3[nH]nc(F)c3c2)C2CC2)c(Cl)c1 [Example 119, (E)-3-(4-((E)-2-(2-Chloro-4-cyanophenyl)-2-cyclopropyl-1-(3-fluoro-1H-indazol-5-yl)vinyl)phenyl)acrylic acid]
MCF7 Viability Assay Max Response (MCF-7 cells): ++ (++ = a single % value ≧ 40%) | IC50 (MCF-7 cells): ≤ 100 nM | Emax (ER-α in MCF-7 cells): ≥ 40% | DC50 (ER-α in MCF-7 cells): ≤ 100 nM

N#Cc1cc(Cl)ccc1/C(=C(\c1ccc(/C=C/C(=O)O)cc1)c1ccc2[nH]nc(F)c2c1)C1CC1 [Example 120, (E)-3-(4-((E)-2-(4-Chloro-2-cyanophenyl)-2-cyclopropyl-1-(3-fluoro-1H-indazol-5-yl)vinyl)phenyl)acrylic acid]
MCF7 Viability Assay Max Response (MCF-7 cells): ++ (++ = a single % value ≧ 40%) | IC50 (MCF-7 cells): ≤ 100 nM | Emax (ER-α in MCF-7 cells): ≥ 40% | DC50 (ER-α in MCF-7 cells): ≤ 100 nM

COc1ccc(/C(=C(\c2ccc(/C=C/C(=O)O)cc2)c2ccc3[nH]nc(F)c3c2)C2CC2)c(C#N)c1 [Example 121, (E)-3-(4-((E)-2-(2-Cyano-4-methoxyphenyl)-2-cyclopropyl-1-(3-fluoro-1H-indazol-5-yl)vinyl)phenyl)acrylic acid]
MCF7 Viability Assay Max Response (MCF-7 cells): ++ (++ = a single % value ≧ 40%) | IC50 (MCF-7 cells): ≤ 100 nM | Emax (ER-α in MCF-7 cells): ≥ 40% | DC50 (ER-α in MCF-7 cells): ≤ 100 nM

CS(=O)(=O)c1cnc(Oc2ccc(/C(=C(\c3ccc(/C=C/C(=O)O)cc3)c3ccc4[nH]nc(F)c4c3)C3CCC3)cc2)cn1 [Example 122, (E)-3-(4-((E)-2-Cyclobutyl-1-(3-fluoro-1H-indazol-5-yl)-2-(4-((5-(methylsulfonyl)pyrazin-2-yl)oxy)phenyl)vinyl)phenyl)acrylic acid]
MCF7 Viability Assay Max Response (MCF-7 cells): ++ (++ = a single % value ≧ 40%) | IC50 (MCF-7 cells): ≤ 100 nM | Emax (ER-α in MCF-7 cells): ≥ 40% | DC50 (ER-α in MCF-7 cells): ≤ 100 nM

O=C(O)/C=C/c1ccc(/C(=C(\c2ccccc2F)C2CCC2)c2ccc3[nH]nc(F)c3c2)cc1 [Example 123, (E)-3-(4-((E)-2-Cyclobutyl-1-(3-fluoro-1H-indazol-5-yl)-2-(2-fluorophenyl)vinyl)phenyl)acrylic acid]
MCF7 Viability Assay Max Response (MCF-7 cells): ++ (++ = a single % value ≧ 40%) | IC50 (MCF-7 cells): ≤ 100 nM | Emax (ER-α in MCF-7 cells): ≥ 40% | DC50 (ER-α in MCF-7 cells): ≤ 100 nM

O=C(O)/C=C/c1ccc(/C(=C(\c2ccccc2Cl)C2CCC2)c2ccc3[nH]nc(F)c3c2)cc1 [Example 124, (E)-3-(4-((E)-2-(2-Chlorophenyl)-2-cyclobutyl-1-(3-fluoro-1H-indazol-5-yl)vinyl)phenyl)acrylic acid]
MCF7 Viability Assay Max Response (MCF-7 cells): ++ (++ = a single % value ≧ 40%) | IC50 (MCF-7 cells): ≤ 100 nM | Emax (ER-α in MCF-7 cells): ≥ 40% | DC50 (ER-α in MCF-7 cells): ≤ 100 nM

Cc1ccccc1/C(=C(\c1ccc(/C=C/C(=O)O)cc1)c1ccc2[nH]nc(F)c2c1)C1CCC1 [Example 125, (E)-3-(4-((E)-2-Cyclobutyl-1-(3-fluoro-1H-indazol-5-yl)-2-(o-tolyl)vinyl)phenyl)acrylic acid]
MCF7 Viability Assay Max Response (MCF-7 cells): ++ (++ = a single % value ≧ 40%) | IC50 (MCF-7 cells): ≤ 100 nM | Emax (ER-α in MCF-7 cells): ≥ 40% | DC50 (ER-α in MCF-7 cells): ≤ 100 nM
